Experiment [1] in a line: Caspase-3 activation activity tested in H1299 lung cancer cells done for 24 or 48 hr at 37 degree C.
Experiment [2] is described as follows: Caspase-3 activation activity tested in DLD1 colon cells done for 24 or 48 hr at 37 degree C.
Experiment [3] is described as follows: Caspase-3 activation activity tested in T47D breast cells done for 24 or 48 hr at 37 degree C.
Experiment [4] in a line: Caspase-3 activation activity tested in HT-29 cancer cells done for 24 or 48 hr at 37 degree C.
Experiment [5] is described as follows: Caspase-3 activation activity tested in LnCap cancer cells done for 24 or 48 hr at 37 degree C.
A short description of experiment [6]: Caspase-3 activation activity tested in […] cancer cells done for 24 or 48 hr at 37 degree C.
Experiment [7] in a line: Caspase-3 activation activity tested in ZR-75-1 cancer cells done for 24 or 48 hr at 37 degree C.
A short description of experiment [8]: Caspase activation activity of compound in cell line H-1299 nonsmall-cell lung cancer cells.

The values that follow come from BindingDB's records for doi:10.1021/jm050292k (Maxim Pharmaceuticals, 2005).

In general, EC50 refers to the concentration at which the effect is half-maximal. A lower EC50 goes with greater potency.

Where only a bound is given, the exact number is not on record here.

`Clc1ccc(-c2noc(-c3sccc3Cl)n2)cn1` [2-Chloro-5-[5-(3-chloro-thiophen-2-yl)-[1,2,4]oxadiazol-3-yl]-pyridine]: the EC50 in experiment [1] was greater than 10 µM; in experiment [2] it was 0.29 µM; in experiment [3], 0.75 µM.

For `Clc1ccc(-c2noc(-c3occc3Br)n2)nc1` [2-[5-(3-Bromo-furan-2-yl)-[1,2,4]oxadiazol-3-yl]-5-chloro-pyridine], the 50% effective concentration (EC50) in experiment [1] was greater than 10 µM; in experiment [2] it was 0.84 µM; in experiment [3], 1.61 µM.

As to `FC(F)(F)c1ccc(-c2noc(-c3occc3Br)n2)nc1` [2-[5-(3-Bromo-furan-2-yl)-[1,2,4]oxadiazol-3-yl]-5-trifluoromethyl-pyridine], the EC50 in experiment [1] is greater than 10 µM; in experiment [2], 0.7 µM; in experiment [3], 0.61 µM.

Consider `FC(F)(F)c1ccc(-c2noc(-c3sccc3Cl)n2)nc1` [2-[5-(3-Chloro-thiophen-2-yl)-[1,2,4]oxadiazol-3-yl]-5-trifluoromethyl-pyridine], for which the EC50 was greater than 10 µM in experiment [1], 0.41 µM in experiment [2] and 1.44 µM in experiment [3].

On to `Clc1ccc(-c2noc(-c3sccc3Cl)n2)cc1` [3-(4-Chloro-phenyl)-5-(3-chloro-thiophen-2-yl)-[1,2,4]oxadiazole], for which the results for the EC50 in experiment [1], in experiment [2] and in experiment [3] were greater than 40 µM, 0.79 µM and 1.77 µM, respectively.

As to `CCOc1ccsc1-c1nc(-c2ccc(Cl)cc2)no1` [3-(4-Chloro-phenyl)-5-(3-ethoxy-thiophen-2-yl)-[1,2,4]oxadiazole], the figures for the half-maximal effective concentration (EC50) in experiment [1], in experiment [2] and in experiment [3] were greater than 40 µM, greater than 10 µM and greater than 40 µM, respectively.

As to `Clc1ccc(-c2noc(-c3ccco3)n2)cc1` [3-(4-Chloro-phenyl)-5-furan-2-yl-[1,2,4]oxadiazole], the EC50 in experiment [1] was greater than 40 µM; in experiment [2], greater than 10 µM; in experiment [3], 17.4 µM.

In the case of `Clc1ccc(-c2noc(-c3cccs3)n2)cc1` [3-(4-Chloro-phenyl)-5-thiophen-2-yl-[1,2,4]oxadiazole], the concentration for a half-maximal effect (EC50) is greater than 40 µM in experiment [1], greater than 10 µM in experiment [2] and greater than 40 µM in experiment [3].

Take `Cc1cc(Cl)ccc1-c1noc(-c2sccc2Cl)n1` [3-(4-chloro-2-methylphenyl)-5-(3-chlorothiophen-2-yl)-1,2,4-oxadiazole]: the EC50 is greater than 40 µM in experiment [1], 0.38 µM in experiment [2] and 0.91 µM in experiment [3].

`Clc1ccc(-c2noc(-c3ccccc3Cl)n2)cc1` [5-(2-Chloro-phenyl)-3-(4-chloro-phenyl)-[1,2,4]oxadiazole]: the EC50 in experiment [1] and in experiment [3] was greater than 40 µM each time.

As for `FC(F)(F)c1ccc(-c2noc(-c3ccccc3Cl)n2)cc1` [5-(2-Chloro-phenyl)-3-(4-trifluoromethyl-phenyl)-[1,2,4]oxadiazole], the 50% effective concentration (EC50) in experiment [1] and in experiment [3] was greater than 40 µM throughout.

As to `Clc1ccc(-c2noc(-c3occc3Br)n2)cc1` [5-(3-Bromo-furan-2-yl)-3-(4-chloro-phenyl)-[1,2,4]oxadiazole], the EC50 was greater than 10 µM in experiment [1], 0.83 µM in experiment [2] and 1.08 µM in experiment [3].

Consider `FC(F)(F)c1ccc(-c2noc(-c3occc3Br)n2)cc1` [5-(3-Bromo-furan-2-yl)-3-(4-trifluoromethyl-phenyl)-[1,2,4]oxadiazole], for which the values for the EC50 in experiment [1], in experiment [2] and in experiment [3] were greater than 10 µM, 1.07 µM and 2.01 µM, respectively.

For the molecule `Clc1ccc(-c2noc(-c3sccc3Br)n2)cc1` [5-(3-Bromo-thiophen-2-yl)-3-(4-chloro-phenyl)-[1,2,4]oxadiazole], the EC50 in experiment [1] is greater than 10 µM; in experiment [2], 1.32 µM; in experiment [3], 3.32 µM.

With `Cc1csc(-c2nc(-c3ccc(Cl)cc3)no2)c1Cl` [5-(3-Chloro-4-methyl-thiophen-2-yl)-3-(4-chloro-phenyl)-[1,2,4]oxadiazole], the values for the EC50 in experiment [1], in experiment [2] and in experiment [3] were greater than 40 µM, greater than 10 µM and greater than 40 µM, respectively.

`Clc1ccc(-c2noc(-c3occc3Cl)n2)cc1` [5-(3-Chloro-furan-2-yl)-3-(4-chloro-phenyl)-[1,2,4]oxadiazole]: the results for the EC50 in experiment [1], in experiment [2] and in experiment [3] were greater than 10 µM, 1.49 µM and 1.74 µM, respectively.

Take `O=[N+]([O-])c1ccc(-c2noc(-c3occc3Cl)n2)cc1` [5-(3-Chloro-furan-2-yl)-3-(4-nitro-phenyl)-[1,2,4]oxadiazole]: the 50% effective concentration (EC50) in experiment [1] is greater than 40 µM; in experiment [3], 1.97 µM.

Turning to `FC(F)(F)c1ccc(-c2noc(-c3occc3Cl)n2)cc1` [5-(3-Chloro-furan-2-yl)-3-(4-trifluoromethyl-phenyl)-[1,2,4]oxadiazole], the results for the concentration giving a half-maximal response (EC50) in experiment [1], in experiment [2] and in experiment [3] were greater than 10 µM, 0.48 µM and 0.52 µM, respectively.

For `FC(F)(F)c1cccc(-c2noc(-c3sccc3Cl)n2)c1` [5-(3-Chloro-thiophen-2-yl)-3-(3-trifluoromethyl-phenyl)-[1,2,4]oxadiazole], the EC50 was greater than 10 µM in experiment [1], 0.28 µM in experiment [2] and 0.9 µM in experiment [3].

For the molecule `FC(F)(F)c1cc(-c2noc(-c3sccc3Cl)n2)ccc1Cl` [5-(3-Chloro-thiophen-2-yl)-3-(4-chloro-3-trifluoromethyl-phenyl)-[1,2,4]oxadiazole], the EC50 in experiment [1] was greater than 10 µM; in experiment [2], 0.56 µM; in experiment [3], 0.93 µM.

Consider `COc1ccc(-c2noc(-c3sccc3Cl)n2)cc1` [5-(3-Chloro-thiophen-2-yl)-3-(4-methoxy-phenyl)-[1,2,4]oxadiazole], for which the EC50 is greater than 10 µM in experiment [1], 1.45 µM in experiment [2] and 4.17 µM in experiment [3].

Take `FC(F)(F)Oc1ccc(-c2noc(-c3sccc3Cl)n2)cc1` [5-(3-Chloro-thiophen-2-yl)-3-(4-trifluoromethoxy-phenyl)-[1,2,4]oxadiazole]: the EC50 in experiment [1] was greater than 10 µM; in experiment [2] it was 0.43 µM; in experiment [3], 0.89 µM.

As for `FC(F)(F)c1ccc(-c2noc(-c3sccc3Cl)n2)cc1` [5-(3-Chloro-thiophen-2-yl)-3-(4-trifluoromethyl-phenyl)-[1,2,4]oxadiazole], the EC50 in experiment [1] is greater than 40 µM; in experiment [2], 0.44 µM; in experiment [3] it was 1.21 µM; in experiment [4], 0.76 µM; in experiment [5], greater than 10 µM; in experiment [6], greater than 10 µM. The 50% effective concentration (EC50) in experiment [7] was determined as 3.34 µM.

Consider `Cc1ccc(-c2noc(-c3sccc3Cl)n2)cc1` [5-(3-Chloro-thiophen-2-yl)-3-p-tolyl-[1,2,4]oxadiazole], for which the EC50 in experiment [1] is greater than 10 µM; in experiment [2], 1.42 µM; in experiment [3], 3.66 µM.

As for `Clc1ccsc1-c1nc(-c2ccccc2)no1` [5-(3-Chloro-thiophen-2-yl)-3-phenyl-[1,2,4]oxadiazole], the EC50 in experiment [1] is greater than 40 µM; in experiment [2] it was 0.76 µM; in experiment [3], 2.82 µM.

On to `Clc1ccc(-c2noc(-c3sccc3Cl)n2)cc1Cl` [5-(3-chlorothiophen-2-yl)-3-(3,4-dichlorophenyl)-1,2,4-oxadiazole], for which the EC50 in experiment [1] was greater than 10 µM; in experiment [2], 0.37 µM; in experiment [3] it was 1.41 µM.

For `Clc1ccc(-c2noc(-c3occc3Cl)n2)nc1` [5-Chloro-2-[5-(3-chloro-furan-2-yl)-[1,2,4]oxadiazol-3-yl]-pyridine], the half-maximal effective concentration (EC50) in experiment [2] is 0.58 µM; in experiment [8], greater than 10 µM; in experiment [3] it was 1.11 µM.

As to `Clc1ccc(-c2noc(-c3sccc3Cl)n2)nc1` [5-Chloro-2-[5-(3-chloro-thiophen-2-yl)-[1,2,4]oxadiazol-3-yl]-pyridine], the concentration giving a half-maximal response (EC50) was greater than 40 µM in experiment [1], 0.39 µM in experiment [2] and 1.59 µM in experiment [3].

Regarding `Cc1ccc(-c2noc(-c3cccs3)n2)cc1` [5-Thiophen-2-yl-3-p-tolyl-[1,2,4]oxadiazole], the EC50 in experiment [1] is greater than 40 µM; in experiment [2], greater than 10 µM; in experiment [3], greater than 40 µM.

Take `FC(F)(F)c1ccc(-c2noc(-c3sccc3Cl)n2)cn1` [5-[5-(3-Chloro-thiophen-2-yl)-[1,2,4]oxadiazol-3-yl]-2-trifluoromethyl-pyridine]: the figures for the concentration for a half-maximal effect (EC50) in experiment [1], in experiment [2] and in experiment [3] were greater than 10 µM, 0.24 µM and 0.92 µM, respectively.

In the case of `CN(C)c1ccc(-c2noc(-c3sccc3Cl)n2)cc1` [{4-[5-(3-Chloro-thiophen-2-yl)-[1,2,4]oxadiazol-3-yl]-phenyl}-dimethyl-amine], the EC50 in experiment [1] was greater than 40 µM; in experiment [2], greater than 10 µM; in experiment [3] it was greater than 40 µM.
